What follows are molecules tested on Plasmodium falciparum (assay: GSK_TCMDC: Inhibition of Plasmodium falciparum 3D7 in whole erythrocytes, using parasite LDH activity as an index of growth.). Conditions: Plasmodium falciparum, 3D7.
Assay type: functional, organism-based

For CC(=O)N(Cc1nc(-c2cc(C(F)(F)F)cc(C(F)(F)F)c2)cs1)c1c(C)cccc1C, which XC50 is on record?
The XC50 was 107 nM.

COc1cc(Cc2cnc(N)nc2N)ccc1OCC(=O)Nc1ccc(C)cc1 was tested. Which XC50 did it give?
The XC50 was 478 nM.

For Cc1cccc2nc(-c3ccc(-c4cccc(NC(=O)c5cncn5C)c4)s3)[nH]c12, which XC50 is on record?
Its XC50 is 645 nM.

For CCOC(=O)c1cnc2c(C(F)(F)F)cccc2c1Nc1ccc(O)cc1, which XC50 is on record?
The XC50 was 632 nM.

How did the XC50 turn out when CC(C)C[C@H](NC(=O)c1cc2cc(OCCN3CCNCC3)ccc2o1)C(=O)NC1CC[C@@H](C)N(C(=O)Nc2ccc(Cl)cc2)CC1=O (stereo partly specified) was run?
Its XC50 is 382 nM.

Which XC50 does the source give for CN(C)Cc1cccc(-c2ccc(NC(=O)c3ccc4c(=O)n(Cc5ccoc5)cnc4c3)cc2)c1 here?
Its XC50 is 770 nM.

For Oc1cc(-c2cccc(C(F)(F)F)c2)nc(Nc2ccc(Cl)c(Cl)c2)n1, which XC50 is on record?
The XC50 was 759 nM.

Which XC50 does the source give for N#Cc1cncc(-c2nc3c(N4CCC(N5CCCC5)CC4)cccc3n2CCNCc2ccccc2)c1 here?
The XC50 was 874 nM.

How did the XC50 turn out when Cc1[nH]c(C)c(-c2ccc(-c3ccc4c(c3)OCO4)nc2)c(=O)c1Br was run?
The XC50 was 187 nM.

How did the XC50 turn out when CC(CN1CCN(C)CC1)C(=O)Nc1ccc(-c2cccc(-c3nc4cc(C(F)(F)F)ccc4[nH]3)c2)cc1 (stereo unspecified) was run?
Its XC50 is 403 nM.

For COc1ccc2nc3cc(Cl)ccc3c(NCCCCN3CCNCC3)c2c1, which XC50 is on record?
Its XC50 is 183 nM.

With N=c1c(C(=O)NCc2ccccc2)cc2c(=O)n3ccccc3nc2n1CCc1ccccc1 as the molecule, how does the XC50 read?
Its XC50 is 535 nM.

For COc1cc(Cc2cnc(N)nc2N)cc(OCCCCc2ccc([N+](=O)[O-])cc2)c1OC, which XC50 is on record?
The XC50 was 989 nM.

For COc1ccc(CCNC(=O)c2cc3c(=O)n4cccc(C)c4nc3n(C)c2=N)cc1, which XC50 is on record?
Its XC50 is 762 nM.

Which XC50 does the source give for Cc1ccc(/C=C2/SC(=Nc3ccccc3)NC2=O)c(C)c1 here?
The XC50 was 557 nM.

How did the XC50 turn out when N=C(N)NCCCN(Cc1ccccc1)c1ccc(Cl)cc1 was run?
The XC50 was 564 nM.

How did the XC50 turn out when CCOC(=O)c1cc(Cl)ccc1OCCCON1C(=N)N=C(N)NC1(C)C was run?
The XC50 was 3.2 nM.

N#Cc1ccc2c(c1)CCN(CCC1CCC(NC(=O)c3ccc(-c4ccccc4)s3)CC1)CC2 (stereo unspecified) was tested. Which XC50 did it give?
Its XC50 is 684 nM.

Which XC50 does the source give for Oc1ccccc1CN1CCC2(CCCN(Cc3ccccc3F)C2)C1 (stereo unspecified) here?
Its XC50 is 679 nM.

With O=C(/C=C/c1ccc(Cl)c(Cl)c1)NC1CCC(CN2CCC(c3c[nH]c4cc(O)ccc34)CC2)CC1 (stereo unspecified) as the molecule, how does the XC50 read?
The XC50 was 813 nM.

For Cc1cc(OCCCN2CCN(CCN3CCOCC3)CC2)ccc1NC(=O)COc1ccc(Cl)cc1C(=O)c1cc(Cl)cc(C#N)c1, which XC50 is on record?
Its XC50 is 697 nM.

For Nc1nc(N)c2c(ccc3c2ccn3Cc2ccccc2)n1, which XC50 is on record?
Its XC50 is 3.2 nM.

With O=C(/C=C/c1ccc(Cl)c(Cl)c1)NCCCCCN1CCC(NC(=O)c2ccc([N+](=O)[O-])cc2)CC1 as the molecule, how does the XC50 read?
Its XC50 is 672 nM.

Which XC50 does the source give for Cc1noc(C)c1-c1cccc(CNCc2cccc(-c3ccc(-c4nc5ccccc5[nH]4)cc3)c2)c1 here?
The XC50 was 228 nM.

With Cc1ccc(-c2cncc(-c3cc(NC4CCN(Cc5ccccc5)CC4)nc(-c4ccccc4)n3)c2)cc1 as the molecule, how does the XC50 read?
The XC50 was 720 nM.

How did the XC50 turn out when COc1cccc(CN2CCCC(CCC(=O)Nc3ccc(C(F)(F)F)cc3)C2)c1O (stereo unspecified) was run?
Its XC50 is 747 nM.

How did the XC50 turn out when CC(=O)Nc1ccc(CN2CCC(NC(=O)c3ccc(-c4cccc(C(F)(F)F)c4)s3)CC2)cc1 was run?
The XC50 was 890 nM.

How did the XC50 turn out when CCCCCCn1c2c(c(=N)c3c1CCC3)CCC2 was run?
The XC50 was 178 nM.

Which XC50 does the source give for O=C(Cc1ccc[n+]([O-])c1)Nc1cccc(-c2cccc(-c3nc4cc(F)ccc4[nH]3)c2)c1 here?
The XC50 was 897 nM.

Fc1ccc2[nH]c(-c3ccc(-c4ccc(CN5CCN(CCN6CCOCC6)CC5)cc4)s3)nc2c1 was tested. Which XC50 did it give?
The XC50 was 147 nM.

How did the XC50 turn out when O=C(/C=C/c1ccc(Cl)c(Cl)c1)NC1CCC(CN2CCC(c3nc4ccccc4n3CCCO)CC2)CC1 (stereo unspecified) was run?
Its XC50 is 577 nM.

With CCNc1cc(C(=O)N[C@@H](Cc2ccccc2)[C@H](O)CNC2(CC)CC2)cc(N2CCCCS2(=O)=O)c1 as the molecule, how does the XC50 read?
The XC50 was 1610 nM.

Cc1ccc2[nH]c3c(NCCN(C)C)ncnc3c2c1 was tested. Which XC50 did it give?
The XC50 was 838 nM.

Which XC50 does the source give for Cc1nc2ccc(-c3ccc(OC(F)(F)F)cc3)cc2c(O)c1C#N here?
The XC50 was 20.7 nM.

Which XC50 does the source give for O=C(/C=C/c1ccc(Cl)c(Cl)c1)NCCC1CCC(N2CCC(c3c[nH]c4ccccc34)CC2)CC1 (stereo unspecified) here?
Its XC50 is 197 nM.

CC(C)CNC(=O)c1cncc(-c2ccc(CNC3Cc4ccccc4C3)cc2)c1 was tested. Which XC50 did it give?
The XC50 was 698 nM.

With COc1cccc(OC)c1OCCCOc1c(C)nc(N)nc1N as the molecule, how does the XC50 read?
Its XC50 is 459 nM.

Which XC50 does the source give for O=C(C=Cc1cccs1)Nc1ccc(-c2nc3ccccc3[nH]2)cc1 here?
The XC50 was 1140 nM.

With CC(=O)Nc1nnc(SCc2c(C)cc(C(C)(C)C)cc2C)s1 as the molecule, how does the XC50 read?
Its XC50 is 704 nM.

CCOc1ccc2c(=NN=Cc3ccccn3)cc(C)[nH]c2c1 was tested. Which XC50 did it give?
The XC50 was 862 nM.

For CCCOc1cc(OCCC)cc(-c2cc(=O)c3ccccc3[nH]2)c1, which XC50 is on record?
The XC50 was 58.1 nM.

Which XC50 does the source give for CNCCNCc1cccc(-c2ccc(-c3nc4ccccc4[nH]3)s2)c1 here?
Its XC50 is 830 nM.

With Cc1cccc(Cn2nc(-c3ccccc3)c(N3CCCCC3)cc2=O)c1 as the molecule, how does the XC50 read?
Its XC50 is 464 nM.

How did the XC50 turn out when N#Cc1cccc(Nc2nccc(NCC(O)c3cccc(C(F)(F)F)c3)n2)c1 (stereo unspecified) was run?
Its XC50 is 553 nM.

Which XC50 does the source give for NC(=O)c1ccc(C(=O)Nc2cccc(-c3cccc(-c4nc5cc(C(F)(F)F)ccc5[nH]4)c3)c2)cc1 here?
Its XC50 is 229 nM.

Which XC50 does the source give for O=C(Nc1ccncc1)Nc1ccc2c(c1)CCN(C1CCC1)CC2 here?
Its XC50 is 1130 nM.

Which XC50 does the source give for Cc1ccc(O)c(-c2cc(C(=O)Nc3ccc(S(=O)(=O)N4CCCC(C)C4)cc3)[nH]n2)c1 (stereo unspecified) here?
The XC50 was 707 nM.

How did the XC50 turn out when CCN1CCN(c2cc(C)c3cc(NC(=O)c4cccc(OC)c4)ccc3n2)CC1 was run?
Its XC50 is 799 nM.

Which XC50 does the source give for Cc1cc(C(=O)Nc2ccc3c(c2)CCN3C2CCN(Cc3cc(F)cc(F)c3F)C2)no1 (stereo unspecified) here?
Its XC50 is 282 nM.

For S=C(NCCc1ccc(Cl)cc1)N1CCC(CN2CCC(c3c[nH]c4ccccc34)CC2)CC1, which XC50 is on record?
The XC50 was 1000 nM.

How did the XC50 turn out when COc1cc(Cc2cnc(N)nc2N)cc(OCCCCCCN)c1OC was run?
Its XC50 is 190 nM.

For O=C(CSc1nccn1C1CCCCC1)Nc1cc(C(F)(F)F)ccc1Cl, which XC50 is on record?
Its XC50 is 402 nM.

With Cc1cc(N2CCCC2)nc(NC(=N)Nc2cccc(C(F)(F)F)c2)n1 as the molecule, how does the XC50 read?
Its XC50 is 315 nM.

Which XC50 does the source give for COC(=O)c1cccc(CN(CCC(O)(C(F)(F)F)C(F)(F)F)C(=O)CC2CCCC2)c1 here?
Its XC50 is 909 nM.

With COc1ccc(CC(C)NCC(O)c2ccc(Cl)c(Cl)c2)cc1 (stereo unspecified) as the molecule, how does the XC50 read?
The XC50 was 717 nM.

O=C(Nc1ccc(S(=O)(=O)N2CCOCC2)cc1)c1cc(-c2cc(Cl)ccc2O)n[nH]1 was tested. Which XC50 did it give?
The XC50 was 770 nM.

Which XC50 does the source give for COc1ccc(NC(=O)CCNc2cc(C)nc(NCCc3ccc(F)cc3)n2)cc1 here?
Its XC50 is 848 nM.

CCC[C@@H](C(=O)NCCc1cccc(OC)c1)N1C(=O)c2c(ccc(OC)c2OC)C1C(=O)Nc1c(C)cccc1C (stereo partly specified) was tested. Which XC50 did it give?
The XC50 was 808 nM.

How did the XC50 turn out when Fc1ccc(-c2cncc(Nc3ccncc3)n2)cc1 was run?
The XC50 was 1320 nM.

CC(Cc1ccc(NC(=O)c2ccc(CC(C)NCc3ccc(Cl)cc3)cc2)cc1)NCCc1cccc(Cl)c1 (stereo unspecified) was tested. Which XC50 did it give?
The XC50 was 450 nM.

C=CCOC(=O)O[C@@H]1[C@@H](OC(=O)OCC=C)[C@@H](OC)O[C@H](COC(c2ccccc2)(c2ccccc2)c2ccccc2)[C@H]1OC(=O)OCC=C was tested. Which XC50 did it give?
The XC50 was 887 nM.

How did the XC50 turn out when COc1ccc(NC(=O)/C=C/c2ccccc2Cl)cc1OCCN1CCC(N(C)C)CC1 was run?
Its XC50 is 969 nM.

Which XC50 does the source give for CCOc1ccc2c(=NN=Cc3ccc(F)cc3)cc(C)[nH]c2c1 here?
Its XC50 is 584 nM.

For Cc1nnc2c(N(C(=O)NCCc3ccccc3)C(=O)NCCc3ccccc3)cc3cc(Cl)ccc3n12, which XC50 is on record?
Its XC50 is 954 nM.

Oc1ccc(CCNc2nc(NCc3ccccc3-c3cccc(Cl)c3)nc(N3CCNCC3)n2)cc1 was tested. Which XC50 did it give?
The XC50 was 1280 nM.

N#CC(c1cccc(Cl)c1)c1ccc2c(C(F)(F)F)cc(C(F)(F)F)nc2n1 (stereo unspecified) was tested. Which XC50 did it give?
The XC50 was 727 nM.

With CCC1N=C(N)N=C(N)N1OCCCOc1c(Cl)cc(Cl)cc1Cl (stereo unspecified) as the molecule, how does the XC50 read?
Its XC50 is 3.2 nM.

Which XC50 does the source give for COc1ccc2nccc([C@@H](O)CN3CCC(CO)(NCc4cc5ccccc5o4)CC3)c2c1 here?
The XC50 was 1370 nM.

With CCCc1cc(=O)[nH]c(-n2nc(C)cc2NC(=O)C(CC)c2ccccc2)n1 (stereo unspecified) as the molecule, how does the XC50 read?
The XC50 was 944 nM.

For CN(Cc1cc(C(F)(F)F)cc(C(F)(F)F)c1)C(=O)C(Cc1ccc(F)cc1)C1CCCNC1 (stereo unspecified), which XC50 is on record?
The XC50 was 1540 nM.

How did the XC50 turn out when COc1ccc2c(N/N=C/c3ccc([N+](=O)[O-])cc3)ccnc2c1 was run?
Its XC50 is 337 nM.

From ChEMBL document CHEMBL1157539, “Thousands of chemical starting points for antimalarial lead identification” (Nature, 2010)
